Test: TEASE-1: safety and adverse events
Assay type: in vivo, human
Protocol: The Tolerability and Effects of gildeuretinol acetate in Stargardt Disease (Clinical trial group 1 also known as TEASE-1) was a 24-month, multicenter, double-masked, placebo-controlled trial designed to evaluate the efficacy and safety of daily oral gildeuretinol acetate in slowing the growth of atrophic retinal lesions in Stargardt disease patients. The trial was conducted at multiple sites in the United States (NCT02402660).
Patients 12 years or older, clinically diagnosed with Stargardt disease, with at least one ABCA4 mutation, at least one eye presenting with well-demarcated areas of reduced fundus autofluorescence, and with any visual acuity, were eligible.
Patients were randomized to gildeuretinol acetate 14 mg capsules, gildeuretinol acetate 24 mg capsules, or placebo capsules, to be taken once daily for one year. After one year, 50% of randomly selected patients receiving placebo were crossed over in a 1:1 ratio to gildeuretinol acetate 14 mg capsules or gildeuretinol acetate 24 mg capsules for a second year.
Gildeuretinol acetate and placebo capsules were identical appearing capsules. Patients were advised to avoid vitamin A-containing supplements and liver-based products. Fruits and vegetables contain beta-carotene, not preformed vitamin A, and could be consumed without limitation. Trial visits occurred at 8 weeks and 6, 12, 18, and 24 months following screening and randomization.

## CC(=O)OC/C=C(C)/C=C/C=C(C)/C=C/C1=C(C)CCCC1(C)C [gildeuretinol acetate, C20-D3-retinol acetate]
14 mg, N = 15
  Photopsia: 1 (6.7) patients (%)
  Plantar fasciitis: 1 (6.7) patients (%)
  Pleurisy: 0 patients (%)
  Pneumonia: 0 patients (%)
  Premenstrual syndrome: 0 patients (%)
  Punctate keratitis: 1 (6.7) patients (%)
  Pyrexia: 0 patients (%)
  Radius fracture: 1 (6.7) patients (%)
  Rash: 1 (6.7) patients (%)
  Rotator cuff syndrome: 0 patients (%)
  Sialoadenitis: 1 (6.7) patients (%)
  Sinus congestion: 0 patients (%)
  Sinusitis: 1 (6.7) patients (%)
  Sjogren's syndrome: 1 (6.7) patients (%)
  Skin infection: 0 patients (%)
  Subdural haematoma: 1 (6.7) patients (%)
  Syncope: 0 patients (%)
  Tendonitis: 1 (6.7) patients (%)
  Thoracic outlet syndrome: 0 patients (%)
  Tongue dry: 1 (6.7) patients (%)
  Tooth abscess: 0 patients (%)
  Tooth extraction: 0 patients (%)
  Toothache: 0 patients (%)
  Upper respiratory tract infection: 1 (6.7) patients (%)
  Vision blurred: 1 (6.7) patients (%)
  Visual field defect: 0 patients (%)
  Visual impairment: 1 (6.7) patients (%)
  Vitamin B12 deficiency: 1 (6.7) patients (%)
  Vitamin D decreased: 2 (13.3) patients (%)
  Vitreous floaters: 1 (6.7) patients (%)
  Vulvovaginal candidiasis: 0 patients (%)
  Wrist fracture: 0 patients (%)
  Xanthelasma: 0 patients (%)
24 mg, 12-month visit, ocular exam
  blurred optic disc margins with transient visual obscuration: observed in one patient
24 mg, N = 15
  Abdominal discomfort: 1 (6.7) patients (%)
  Abdominal distension: 1 (6.7) patients (%)
  Abdominal pain upper: 1 (6.7) patients (%)
  Abnormal dreams: 1 (6.7) patients (%)
  Adverse events, Overall: 13 (86.7) patients (%)
  Alanine aminotransferase increased: 0 patients (%)
  Alopecia: 0 patients (%)
  Ankle fracture: 0 patients (%)
  Arthralgia: 1 (6.7) patients (%)
  Arthritis: 0 patients (%)
  Aspartate aminotransferase increased: 0 patients (%)
  Back injury: 0 patients (%)
  Back pain: 1 (6.7) patients (%)
  Blepharospasm: 0 patients (%)
  Blood cholesterol increased: 1 (6.7) patients (%)
  Blood creatinine increased: 0 patients (%)
  Blood iron decreased: 1 (6.7) patients (%)
  Blood pressure increased: 1 (6.7) patients (%)
  Blood triglycerides increased: 0 patients (%)
  Bowel movement irregularity: 1 (6.7) patients (%)
  Bronchitis: 0 patients (%)
  Cartilage injury: 0 patients (%)
  Conjunctival laceration: 1 (6.7) patients (%)
  Conjunctivitis: 0 patients (%)
  Constipation: 1 (6.7) patients (%)
  Cough: 2 (13.3) patients (%)
  Death: 0 patients (%)
  Depression: 0 patients (%)
  Diarrhoea: 0 patients (%)
  Diplopia: 1 (6.7) patients (%)
  Dry eye: 1 (6.7) patients (%)
  Dry mouth: 0 patients (%)
  Dry skin: 1 (6.7) patients (%)
  Ear discomfort: 1 (6.7) patients (%)
  Ear infection: 0 patients (%)
  Ear pain: 0 patients (%)
  Eczema: 0 patients (%)
  Electrocardiogram abnormal: 0 patients (%)
  Erythema: 0 patients (%)
  Eye irritation: 0 patients (%)
  Eye pain: 1 (6.7) patients (%)
  Eye pruritus: 1 (6.7) patients (%)
  Face injury: 0 patients (%)
  Faeces soft: 0 patients (%)
  Fall: 1 (6.7) patients (%)
  Gastroenteritis: 0 patients (%)
  Gastroenteritis viral: 1 (6.7) patients (%)
  Hair texture abnormal: 0 patients (%)
  Hand fracture: 0 patients (%)
  Headache: 2 (13.3) patients (%)
  Herpes zoster: 0 patients (%)
  Hordeolum: 1 (6.7) patients (%)
  Hypertension: 1 (6.7) patients (%)
  Hypobarism: 1 (6.7) patients (%)
  Hypothyroidism: 1 (6.7) patients (%)
  Hysterectomy: 1 (6.7) patients (%)

Reference: patent publication US20260345517A1, “DOSAGE REGIMENS FOR TREATING STARGARDT DISEASE” (Alkeus Pharmaceuticals, Inc., priority 2024, published 2026)
